Laboratory results from ChEMBL document CHEMBL4616690, “Assembling Pharma Resources to Tackle Diseases of Underserved Populations” (ACS Med Chem Lett, 2020).

Key:
[1] = tested on: Wolbachia; assay: Antibacterial activity against Wolbachia infected in insect cells; assay type: functional, organism-based
[2] = tested on: Wolbachia; assay: Potency index, ratio IC50 for doxycycline to IC50 for compound for antibacterial activity against Wolbachia infected in insect cells; assay type: functional
[3] = tested on: Wolbachia; assay: Potency index, ratio IC50 for TylA to IC50 for compound for antibacterial activity against Wolbachia infected in insect cells; assay type: functional

`CC[C@H]1OC(=O)C[C@@H](O)[C@H](C)[C@@H](O[C@@H]2O[C@H](C)[C@@H](O[C@H]3C[C@@](C)(O)[C@@H](OCc4ccc(F)cc4)[C@H](C)O3)[C@H](N(C)C)[C@H]2O)[C@@H](CC=O)C[C@@H](C)C(=O)/C=C/C(C)=C/[C@@H]1CO[C@@H]1O[C@H](C)[C@@H](O)[C@@H](OC)[C@H]1OC` [FLUBENTYLOSIN] was tested, and the IC50 [1] was 0.02 nM, the “Ratio IC50” value [2] was over 1000 and the “Ratio IC50” value [3] was over 1000.
